Key:
Assay type in all cases: physicochemical
[1] = Adhesiveness (amount of material sticking to the punch); conditions: about 30 mg, φ8 mm round tooling, 10 kN, compression repeated twice
Procedure: (§1) Approximately 30 mg of Form A and Form I in WO2017002095A1 were weighed, added into the dies of a φ8 mm round tooling, compressed at 10 kN and held for about 30 s. The amount of material sticking to the punch was weighed. The compression was repeated twice and the cumulative amount and average amount of material sticking to the punch during the compression were recorded.
as §1, with “Form F” for “Form A”
as §1, with “Form G” for “Form A”

[2] = Hygroscopicity by dynamic vapor sorption (DVS); conditions: 80% RH, 25° C.; for Hygroscopicity: Chinese Pharmacopoeia 2015 definition; for Weight gain: DVS
Procedure: Dynamic vapor sorption (DVS) was applied to test hygroscopicity of Form A with about 10 mg of sample. Weight changes at each relative humidity were recorded in a cycle of 0-95%-0 RH at 25° C.±1° C.
(§2) Description and definition of hygroscopicity (general notice 9103 drug hygroscopicity test guidelines in 2015 edition of Chinese Pharmacopoeia, test at 25° C.+/−1° C., 80% RH). • deliquescent: Sufficient water is absorbed to form a liquid; • very hygroscopic: Increase in mass is equal to or greater than 15 percent; • hygroscopic: Increase in mass is less than 15 percent and equal to or greater than 2 percent; • slightly hygroscopic: Increase in mass is less than 2 percent and equal to or greater than 0.2 percent. • non hygroscopic or almost non hygroscopic: Increase in mass is less than 0.2%.
(§3) Dynamic vapor sorption (DVS) was applied to test hygroscopicity of Form F with about 10 mg of sample. Weight changes at each relative humidity were recorded in a cycle of 0-95%-0 RH at 25° C.±1° C. DVS plot is substantially as depicted in FIG. 32, and XRPD patterns before and after DVS are compared in FIG. 33.
as §2, with “C. +/−1°” for “C.+/−1°”
as §3, with “Form CS15” for “Form F”, “FIG. 38,” for “FIG. 32,”, “FIG. 39.” for “FIG. 33.”

[3] = Flowability (compressibility index / Carr index); conditions: for Flowability: by compressibility index; for Compressibility index: c=(ρf−ρ0)/ρf
Procedure: (§4) Compressibility index or Carr index is usually utilized to evaluate the flowability of powder and granules during the drug product process. Compressibility index test method is as follows: a certain amount of powder was added into a measuring cylinder and bulk volume was recorded. Then the powder was tapped to make it in the tightest state and the tapped volume was recorded. The bulk density (ρ0) and tapped density (ρf) were calculated. Compressibility index was calculated according to c=(ρf−ρ0)/ρf.
as §4, with “(ρ0),” for “(ρ0) and”, “calculated and compressibility” for “calculated. Compressibility”, “c=(pf-po)/pf.” for “c=(ρf−ρ0)/ρf.”
as §4, with “(ρ0),” for “(ρ0) and”, “calculated and compressibility” for “calculated. Compressibility”

Row | Structure (SMILES) | Average amount (material sticking to the punch) [1] [µg] | Cumulative amount (material sticking to the punch) [1] [µg] | Hygroscopicity [2] | Weight gain [2] [%] | Bulk density (ρ0) [3] [g/mL] | Tapped density (ρf) [3] [g/mL] | Flowability [3] | Compressibility index [3] [%]
1 | CC#CC(=O)N1CCC[C@H]1c1nc(-c2ccc(C(=O)Nc3ccccn3)cc2)c2c(N)nccn12 [Form F, (S)-4-(8-amino-3-(1-(but-2-ynoyl)pyrrolidin-2-yl)imidazo[1,5-a]pyrazin-1-yl)-N-(pyridin-2-yl)benzamide] | 30 | 60 | non hygroscopic or almost non hygroscopic (Increase in mass is less than 0.2%) | 0.09 | 0.185 | 0.216 | Good (11-15) | 14
2 | CC#CC(=O)N1CCC[C@H]1c1nc(-c2ccc(C(=O)Nc3ccccn3)cc2)c2c(N)nccn12 [Form G, (S)-4-(8-amino-3-(1-(but-2-ynoyl)pyrrolidin-2-yl)imidazo[1,5-a]pyrazin-1-yl)-N-(pyridin-2-yl)benzamide] | 30 | 60 | – | – | 0.443 | 0.488 | Good (11-15) | 11
3 | CC#CC(=O)N1CCC[C@H]1c1nc(-c2ccc(C(=O)Nc3ccccn3)cc2)c2c(N)nccn12 [Form A, (S)-4-(8-amino-3-(1-(but-2-ynoyl)pyrrolidin-2-yl)imidazo[1,5-a]pyrazin-1-yl)-N-(pyridin-2-yl)benzamide] | 40 | 80 | slightly hygroscopic (Increase in mass is less than 2 percent and equal to or greater than 0.2 percent) | 0.99 | 0.269 | 0.303 | Good (11-15) | 11
4 | CC#CC(=O)N1CCC[C@H]1c1nc(-c2ccc(C(=O)Nc3ccccn3)cc2)c2c(N)nccn12 [Form CS15, (S)-4-(8-amino-3-(1-(but-2-ynoyl)pyrrolidin-2-yl)imidazo[1,5-a]pyrazin-1-yl)-N-(pyridin-2-yl)benzamide] | – | – | slightly hygroscopic (Increase in mass is less than 2 percent and equal to or greater than 0.2 percent) | 1.78 | – | – | – | –
